Test results from patent US20260317344A1, “EGFR INHIBITORS FOR TREATING DISEASE” (BLOSSOMHILL THERAPEUTICS, INC., priority 2023, published 2026).
pIC50: −log10 of the molar value.

Columns and labels:
EGFR (L858R/T790M/C797S) = EGFR (L858R/T790M/C797S) (Homo sapiens, UniProt P00533, C797S/L858R/T790M); experiment: HotSpot radiometric kinase assay, inhibition of EGFR L858R/T790M/C797S mutant; type: biochemical; details: 33P ATP, room temperature, 120 m
Summary of the method: (§1)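 Kinase/substrate pairs in 20 mM HEPES pH 7.5, 10 mM MgCl2, 1 mM EGTA, 0.02% Brij35, 0.02 mg/ml BSA, 0.1 mM Na3VO4, 2 mM DTT, 1% DMSO, preincubated ~20 min with compound. Reaction started with ATP/33P-ATP ([…]), run 120 min at room temperature; phosphorylation read by P81 filter binding, IC50 from curve fits.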

[1] = test system: BaF3 cells with engineered EGFR L858R/C797S; experiment: 3-Day CellTiter Glo (CTG) cell proliferation assay, BaF3 EGFR L858R/C797S; type: cell-based; details: Mus musculus, 3-day CTG proliferation, 72 hours
Summary of the method: (§2)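 Growth inhibition in transgene-bearing BaF3 lines was scored after three days of compound treatment by CellTiter-Glo 2.0 ATP luminescence, yielding IC50 values.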

EGFR (D770_N771insNPG) = EGFR (D770_N771insNPG) (Homo sapiens, UniProt P00533, INS770NPG); experiment: HotSpot radiometric kinase assay, inhibition of EGFR (D770_N771insNPG) mutant; type: biochemical; details: 33P ATP, room temperature, 120 m
Summary of the method: as §1

EGFR WT = EGFR WT (Homo sapiens, UniProt P00533); experiment: HotSpot radiometric kinase assay, inhibition of EGFR WT; type: biochemical; details: 33P ATP, room temperature, 120 m
EGFR WT, sequence (P00533 25-1210): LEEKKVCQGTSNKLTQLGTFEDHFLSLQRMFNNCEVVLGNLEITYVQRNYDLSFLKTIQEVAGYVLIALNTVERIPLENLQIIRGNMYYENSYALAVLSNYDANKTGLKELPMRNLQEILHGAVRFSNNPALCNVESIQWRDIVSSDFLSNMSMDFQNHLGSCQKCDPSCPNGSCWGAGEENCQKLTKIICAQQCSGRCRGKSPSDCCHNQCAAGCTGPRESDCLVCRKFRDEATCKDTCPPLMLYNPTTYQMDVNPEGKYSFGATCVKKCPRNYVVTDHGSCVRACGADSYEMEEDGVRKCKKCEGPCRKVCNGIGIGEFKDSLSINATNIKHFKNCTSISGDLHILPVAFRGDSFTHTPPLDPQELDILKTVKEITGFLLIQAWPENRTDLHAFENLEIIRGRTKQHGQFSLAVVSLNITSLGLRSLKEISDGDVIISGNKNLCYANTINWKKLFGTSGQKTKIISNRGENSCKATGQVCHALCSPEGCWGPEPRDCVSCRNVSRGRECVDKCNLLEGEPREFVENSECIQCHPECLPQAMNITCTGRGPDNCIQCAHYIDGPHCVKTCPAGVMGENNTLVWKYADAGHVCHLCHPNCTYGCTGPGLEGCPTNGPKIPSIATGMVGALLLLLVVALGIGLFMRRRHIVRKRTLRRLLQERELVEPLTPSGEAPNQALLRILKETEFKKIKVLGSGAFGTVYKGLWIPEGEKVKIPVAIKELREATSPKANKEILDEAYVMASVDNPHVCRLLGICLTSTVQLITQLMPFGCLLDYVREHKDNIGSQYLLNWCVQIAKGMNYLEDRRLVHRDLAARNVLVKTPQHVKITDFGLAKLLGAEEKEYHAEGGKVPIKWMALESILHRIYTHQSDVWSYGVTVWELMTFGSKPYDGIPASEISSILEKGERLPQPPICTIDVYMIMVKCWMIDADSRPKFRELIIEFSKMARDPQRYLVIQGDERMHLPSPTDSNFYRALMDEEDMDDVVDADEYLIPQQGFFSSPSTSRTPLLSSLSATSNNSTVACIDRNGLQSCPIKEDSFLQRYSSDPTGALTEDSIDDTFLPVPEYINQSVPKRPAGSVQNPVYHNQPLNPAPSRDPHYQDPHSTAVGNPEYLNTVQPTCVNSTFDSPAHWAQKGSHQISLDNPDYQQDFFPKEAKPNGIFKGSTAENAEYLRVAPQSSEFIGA
Protocol: (§3) Biochemical Assays for inhibition of wild-type and mutant EGFRs
(§4) Briefly, specific kinase/substrate pairs along with required cofactors were prepared in reaction buffer; 20 mM HEPES pH 7.5, 10 mM […], 1 mM EGTA, 0.02% Brij35, 0.02 mg/ml BSA, 0.1 mM Na3VO4, 2 mM DTT, 1% DMSO. Compounds were delivered into the reaction, followed ~20 minutes later by addition of a mixture of ATP (Sigma, St. Louis MO) and ^33P ATP (Perkin Elmer, Waltham MA) to a final concentration of […]. Reactions were carried out at room temperature for 120 m, followed by spotting of the reactions onto P81 ion exchange filter paper (Whatman Inc., Piscataway, NJ). Unbound phosphate was removed by extensive washing of filters in 0.75% phosphoric acid. […] IC50 values and curve fits were obtained using Prism (GraphPad Software).

EGFR (L858R/T790M) = EGFR (L858R/T790M) (Homo sapiens, UniProt P00533, L858R/T790M); experiment: HotSpot radiometric kinase assay, inhibition of EGFR L858R/T790M mutant; type: biochemical; details: 33P ATP, room temperature, 120 m
EGFR (L858R/T790M), sequence (P00533 25-1210 T790M/L858R): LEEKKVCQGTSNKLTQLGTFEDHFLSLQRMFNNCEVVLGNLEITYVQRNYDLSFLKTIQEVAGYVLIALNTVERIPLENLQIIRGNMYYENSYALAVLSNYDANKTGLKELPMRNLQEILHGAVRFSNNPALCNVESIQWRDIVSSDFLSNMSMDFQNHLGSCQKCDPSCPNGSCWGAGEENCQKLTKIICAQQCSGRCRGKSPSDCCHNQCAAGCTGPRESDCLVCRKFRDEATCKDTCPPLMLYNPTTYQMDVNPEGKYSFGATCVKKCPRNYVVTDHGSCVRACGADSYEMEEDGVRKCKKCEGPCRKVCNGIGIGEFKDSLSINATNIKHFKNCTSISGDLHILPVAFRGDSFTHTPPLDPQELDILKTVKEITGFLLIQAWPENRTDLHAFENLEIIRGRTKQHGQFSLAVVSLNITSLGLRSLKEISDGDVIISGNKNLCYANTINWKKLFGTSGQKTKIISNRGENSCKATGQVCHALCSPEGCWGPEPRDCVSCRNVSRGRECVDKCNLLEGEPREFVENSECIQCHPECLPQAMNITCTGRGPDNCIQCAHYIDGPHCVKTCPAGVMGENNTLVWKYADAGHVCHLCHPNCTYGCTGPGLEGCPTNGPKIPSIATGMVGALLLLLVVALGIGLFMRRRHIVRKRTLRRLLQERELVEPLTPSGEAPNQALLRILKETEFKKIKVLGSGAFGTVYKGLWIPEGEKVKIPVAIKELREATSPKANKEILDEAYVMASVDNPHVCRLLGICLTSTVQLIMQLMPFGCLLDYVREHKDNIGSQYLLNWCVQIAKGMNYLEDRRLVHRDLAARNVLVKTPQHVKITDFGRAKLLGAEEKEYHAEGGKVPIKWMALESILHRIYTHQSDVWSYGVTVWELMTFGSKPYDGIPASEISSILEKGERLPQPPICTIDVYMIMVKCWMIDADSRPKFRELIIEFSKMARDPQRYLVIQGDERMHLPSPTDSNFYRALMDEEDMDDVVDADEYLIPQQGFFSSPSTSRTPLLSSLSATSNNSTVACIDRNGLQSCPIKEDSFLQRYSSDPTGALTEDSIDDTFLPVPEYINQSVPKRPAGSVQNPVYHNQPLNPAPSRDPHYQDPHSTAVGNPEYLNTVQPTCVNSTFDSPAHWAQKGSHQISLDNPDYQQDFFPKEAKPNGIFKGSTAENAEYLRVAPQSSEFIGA
Protocol: as §3, §4

NCI-H1975 cells = experiment: 5-Day CellTiter Glo (CTG) cell proliferation assay, NCI-H1975; type: cell-based; details: Homo sapiens; NCI-H1975 cells (L858R/T790M EGFR), 5-day CTG proliferation, 120 hours; read-out: H1975 IC50
Summary of the method: (§5)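 Luminescent ATP signal (CellTiter-Glo 2.0) after 120 hours of compound exposure gave IC50 values. PC-9 and HCC827 harbour EGFR d746-750; NCI-H1975 harbours L858R/T790M.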

EGFR (D746-750) = EGFR (D746-750) (Homo sapiens, UniProt P00533, DEL746-750); experiment: HotSpot radiometric kinase assay, inhibition of EGFR 746-750 mutant; type: biochemical; details: 33P ATP, room temperature, 120 m
Summary of the method: as §1

HCC827 cells = experiment: 5-Day CellTiter Glo (CTG) cell proliferation assay, HCC827; type: cell-based; details: Homo sapiens; HCC827 cells (d746-750 EGFR), 5-day CTG proliferation, 120 hours; read-out: HCC827 IC50
Summary of the method: as §5

[2] = molecular target: T1, pEGFR, NCI-H1975 cells (L858R/T790M EGFR) (Homo sapiens, UniProt P00533, L858R/T790M); experiment: Cellular EGFR phosphorylation assay (LANCE Ultra TR-FRET) in NCI-H1975 cells; type: cell-based; details: 4 hours at 37° C., read-out: H1975 pEGFR IC50
T1 construct: pEGFR (Tyr1068) TR-FRET
T1 sequence (P00533 25-1210 T790M/L858R): as above
Summary of the method: (§6)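 PC-9 and NCI-H1975 cells (50 thousand/well) or A431 cells (30 thousand/well) treated next day for 4 h at 37° C with a 9-dose 3-fold titration; A431 stimulated with 40 ng/mL EGF for the final 10 min. Lysate phospho-EGFR (Tyr1068) read by LANCE Ultra TR-FRET; IC50 derived.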

[3] = test system: BaF3 cells with engineered EGFR L858R/T790M/C797S; experiment: 3-Day CellTiter Glo (CTG) cell proliferation assay, BaF3 EGFR L858R/T790M/C797S; type: cell-based; details: Mus musculus, 3-day CTG proliferation, 72 hours
Summary of the method: as §2

[4] = molecular target: T2, pEGFR, PC-9 cells (d746-750 EGFR) (Homo sapiens, UniProt P00533, DEL746-750); experiment: Cellular EGFR phosphorylation assay (LANCE Ultra TR-FRET) in PC-9 cells; type: cell-based; details: 4 hours at 37° C., read-out: PC-9 pEGFR IC50
T2 construct: pEGFR (Tyr1068) TR-FRET
Summary of the method: as §6

[5] = test system: BaF3 cells with engineered EGFR d746-750/T790M; experiment: 3-Day CellTiter Glo (CTG) cell proliferation assay, BaF3 EGFR d746-750/T790M; type: cell-based; details: Mus musculus; BaF3 EGFR d746-750/T790M cells, 3-day CTG proliferation, 72 hours
Summary of the method: as §2

PC-9 cells = experiment: 5-Day CellTiter Glo (CTG) cell proliferation assay, PC-9; type: cell-based; details: Homo sapiens; PC-9 cells (d746-750 EGFR), 5-day CTG proliferation, 120 hours; read-out: PC-9 IC50
Summary of the method: as §5

[6] = molecular target: T3, pEGFR, A431 cells (wildtype EGFR) (Homo sapiens, UniProt P00533); experiment: Cellular EGFR phosphorylation assay (LANCE Ultra TR-FRET) in A431 cells; type: cell-based; details: 4 hours at 37° C., 40 ng/mL EGF for the final 10 minutes, read-out: A431 pEGFR IC50
T3 construct: pEGFR (Tyr1068) TR-FRET
T3 sequence (P00533 25-1210): as the sequence (P00533 25-1210) above
Summary of the method: as §6

EGFR (L858R) = EGFR (L858R) (Homo sapiens, UniProt P00533, L858R); experiment: HotSpot radiometric kinase assay, inhibition of EGFR L858R mutant; type: biochemical; details: 33P ATP, room temperature, 120 m
Protocol: as §3, §4

EGFR (D746-750/C797S) = EGFR (D746-750/C797S) (Homo sapiens, UniProt P00533, C797S/DEL746-750); experiment: HotSpot radiometric kinase assay, inhibition of EGFR 746-750/C797S mutant; type: biochemical; details: 33P ATP, room temperature, 120 m
Summary of the method: as §1

pIC50 (EGFR (L858R/T790M/C797S)) | pIC50 [1] | pIC50 (EGFR (D770_N771insNPG)) | pIC50 (EGFR WT) | pIC50 (EGFR (L858R/T790M)) | pIC50 (NCI-H1975 cells) | pIC50 (EGFR (D746-750)) | pIC50 (HCC827 cells) | pIC50 [2] | pIC50 [3] | pIC50 [4] | pIC50 [5] | pIC50 (PC-9 cells) | pIC50 [6] | pIC50 (EGFR (L858R)) | pIC50 (EGFR (D746-750/C797S)) | SMILES
9.43 | 10.22 | 9.66 | 9.92 | 9.43 | 9.12 | 9.22 | 9.74 | 8.73 | 9.10 | 8.98 | 9.24 | 9.48 | 8.13 | 9.57 | 9.62 | CCOc1nn(CCO)c2c1/C=C/c1n[nH]c3cnc(cc13)-c1c(C)nn(C)c1O[C@@H](C)CN(CC)C2 [Ex. 15, 2-[(10S,17E)-16-ethoxy-12-ethyl-6,8,10-trimethyl-2,8,10,11,12,13-hexahydro-14H-5,3-(azenometheno)tripyrazolo[3,4-f:3′,4′-j:4″,3″-n][1,4]oxazacyclopentadecin-14-yl]ethan-1-ol]
8.63 | 9.66 | 9.23 | 9.44 | 9.01 | 7.76 | 9.51 | 9.43 | 8.58 | 8.94 | 8.73 | 9.47 | 8.70 | 7.84 | 9.28 | 9.00 | CCOc1nn(CCO)c2c1/C=C/c1n[nH]c3cnc(cc13)-c1c(C)nn(C)c1O[C@H](C)CN(CC)C2 [Ex. 17, 2-[(10R,17E)-16-ethoxy-12-ethyl-6,8,10-trimethyl-2,8,10,11,12,13-hexahydro-14H-5,3-(azenometheno)tripyrazolo[3,4-f:3′,4′-j:4″,3″-n][1,4]oxazacyclopentadecin-14-yl]ethan-1-ol]
9.24 | 9.96 | 9.21 | 9.30 | 9.03 | 8.90 | 9.29 | 9.57 | 8.80 | 9.11 | 8.82 | 9.39 | 9.33 | 7.65 | 8.77 | 8.97 | CCOc1nn([C@@H](C)CO)c2c1/C=C/c1n[nH]c3cnc(cc13)-c1c(C)nn(C)c1O[C@H](C)CN(CC)C2 [Ex. 24, (2S)-2-[(10R,17E)-16-ethoxy-12-ethyl-6,8,10-trimethyl-2,8,10,11,12,13-hexahydro-14H-5,3-(azenometheno)tripyrazolo[3,4-f:3′,4′-j:4″,3″-n][1,4]oxazacyclopentadecin-14-yl]propan-1-ol]

Continued, molecule first:

SMILES | pIC50 (EGFR (L858R/T790M/C797S)) | pIC50 [1] | pIC50 (EGFR (D770_N771insNPG)) | pIC50 (EGFR WT) | pIC50 (EGFR (L858R/T790M)) | pIC50 (NCI-H1975 cells) | pIC50 (EGFR (D746-750)) | pIC50 (HCC827 cells) | pIC50 [2] | pIC50 [3] | pIC50 [4] | pIC50 [5] | pIC50 (PC-9 cells) | pIC50 [6] | pIC50 (EGFR (L858R)) | pIC50 (EGFR (D746-750/C797S))
CCOc1nn(CCO)c2c1/C=C/c1n[nH]c3cnc(cc13)-c1c(C)nn(C)c1OC[C@H](C)N(CC)C2 [Ex. 16, 2-[(11S,17E)-16-ethoxy-12-ethyl-6,8,11-trimethyl-2,8,10,11,12,13-hexahydro-14H-5,3-(azenometheno)tripyrazolo[3,4-f:3′,4′-j:4″,3″-n][1,4]oxazacyclopentadecin-14-yl]ethan-1-ol] | 8.34 | 9.47 | 9.17 | 9.35 | 8.86 | 7.57 | 9.18 | 9.06 | 8.28 | 8.71 | 8.36 | 9.18 | 8.25 | 7.70 | 9.21 | 8.84
CCOc1nn(CCO)c2c1/C=C/c1n[nH]c3cnc(cc13)-c1c(C)nn(C)c1OC[C@@H](C)N(CC)C2 [Ex. 18, 2-[(11R,17E)-16-ethoxy-12-ethyl-6,8,11-trimethyl-2,8,10,11,12,13-hexahydro-14H-5,3-(azenometheno)tripyrazolo[3,4-f:3′,4′-j:4″,3″-n][1,4]oxazacyclopentadecin-14-yl]ethan-1-ol] | 8.39 | 9.54 | 9.23 | 9.37 | 8.95 | 7.71 | 9.35 | 9.28 | 8.05 | 8.61 | 8.49 | 8.84 | 8.67 | 7.81 | 9.29 | 8.88
Cc1nn(C)c2c1-c1cc3c(n[nH]c3cn1)/C=C/c1c(OCC#N)nn(CCO)c1CN(C)C[C@H](C)O2 [Ex. 22, {[(10S,17E)-14-(2-hydroxyethyl)-6,8,10,12-tetramethyl-2,10,11,12,13,14-hexahydro-8H-5,3-(azenometheno)tripyrazolo[3,4-f:3′,4′-j:4″,3″-n][1,4]oxazacyclopentadecin-16-yl]oxy}acetonitrile] | 9.28 | 9.25 | 9.55 | 9.39 | 9.14 | 7.70 | 9.52 | 9.06 | 8.17 | 8.36 | 8.25 | 8.24 | 8.15 | 7.17 | 8.84 | 8.90
CCN1Cc2c(c(OCC#N)nn2CCO)/C=C/c2n[nH]c3cnc(cc23)-c2c(C)nn(C)c2O[C@@H](C)C1 [Ex. 23, {[(10S,17E)-12-ethyl-14-(2-hydroxyethyl)-6,8,10-trimethyl-2,10,11,12,13,14-hexahydro-8H-5,3-(azenometheno)tripyrazolo[3,4-f:3′,4′-j:4″,3″-n][1,4]oxazacyclopentadecin-16-yl]oxy}acetonitrile] | 9.33 | 9.37 | 9.54 | 9.51 | 9.22 | 8.00 | 9.44 | 9.39 | 8.23 | 8.57 | 8.47 | 8.42 | 8.54 | 7.37 | 8.99 | 9.00
CCOc1nn([C@@H](C)CO)c2c1/C=C/c1n[nH]c3cnc(cc13)-c1c(C)nn(C)c1OC[C@H](C)N(CC)C2 [Ex. 25, (2S)-2-[(11S,17E)-16-ethoxy-12-ethyl-6,8,11-trimethyl-2,8,10,11,12,13-hexahydro-14H-5,3-(azenometheno)tripyrazolo[3,4-f:3′,4′-j:4″,3″-n][1,4]oxazacyclopentadecin-14-yl]propan-1-ol] | 9.29 | 9.89 | 8.91 | 9.26 | 8.86 | 7.99 | 9.29 | 9.34 | 8.71 | 9.07 | 8.91 | 9.20 | 8.53 | 7.75 | 8.73 | 8.99
